# Data from patent US10507228B2, “Methods and compositions related to KRAS inhibitors” (priority 2015, dated 2019).
# Positions of bridges follow the written chain, without caps; N, C: chain ends. Non-standard residues stand in square brackets, D forms with d. Residues, ends and D or L forms follow the SMILES beside them. ξ: configuration not given here. ξK = NCCCCC(N)C(=O)O; ξA = CC(N)C(=O)O
# Target: T1, mt G12D KRas binding to GST-RBD (Raf Ras binding domain) (Homo sapiens, UniProt P01116, G12D)
# T1 construct: expressed in transfected cells; host or cells: NIH-3T3 cells (lysate)
# Test: GST-RBD pulldown assay
# Conditions: lysates of NIH-3T3 cells that ectopically express G12D KRas; compared to DMSO control; FIG. 1B
# Protocol: Several stapled peptides such as FY-A-100-1 and 2 have been made (see FIG. 1A) that were designed based on the helical domain (78-92, LHDCLMKALKVRGLQ) (SEQ ID NO. 1) of Raf RBD (Ras binding domain). The synthesis was conducted on solid phase. In GST-RBD pulldown assays, FY-A-100-1 was potent at inhibiting the ability of GST-RBD to bind mt G12D KRas from lysates of NIH-3T3 cells that ectopically express G12D KRas (FIG. 1B). […] Furthermore, FY-A-90-1A, which is identical to FY-A-100-1 except for having a “CH2” shorter side chain of residue 82 that forms the staple, was not active.
row,Structure (SMILES),inhibiting the ability of GST-RBD to bind mt G12D KRas
1,CSCC[C@H](NC(=O)[C@H](CC(=O)O)NC(=O)[C@H](CS)NC(=O)[C@H](CC(=O)O)NC(=O)[C@H](Cc1cnc[nH]1)NC(=O)[C@@H](N)CC(C)C)C(=O)N[C@@H](CCCCN)C(=O)NC(CCCCN)C(=O)N[C@@H](CCCCN)C(=O)NC(CCCCN)C(=O)N[C@H](C(=O)N[C@@H](CCCNC(=N)N)C(=O)NCC(=O)N[C@@H](CC(C)C)C(=O)N[C@@H](CCC(N)=O)C(N)=O)C(C)C (stereo partly drawn) [FY-A-90-1B] (H-LHDCDMK[ξK]K[ξK]VRGLQ-NH2),little activity
2,CSCC[C@H](NC(=O)[C@H](CC(=O)O)NC(=O)[C@H](CS)NC(=O)[C@H](CC(=O)O)NC(=O)[C@H](Cc1cnc[nH]1)NC(=O)[C@@H](N)CC(C)C)C(=O)N[C@@H](CCCCN)C(=O)NC(C)C(=O)N[C@@H](CCCCN)C(=O)NC(CCCCN)C(=O)N[C@H](C(=O)N[C@@H](CCCNC(=N)N)C(=O)NCC(=O)N[C@@H](CC(C)C)C(=O)N[C@@H](CCC(N)=O)C(N)=O)C(C)C (stereo partly drawn) [FY-A-90-2B] (H-LHDCDMK[ξA]K[ξK]VRGLQ-NH2),little activity
3,CSCC[C@@H]1NC(=O)[C@@H](NC(=O)[C@H](CS)NC(=O)[C@H](CC(=O)O)NC(=O)[C@H](Cc2cnc[nH]2)NC(=O)[C@@H](N)CC(C)C)CCC(=O)NCCCC[C@@H](C(=O)N[C@@H](CCCCN)C(=O)N[C@H](C(=O)N[C@@H](CCCNC(=N)N)C(=O)NCC(=O)N[C@@H](CC(C)C)C(=O)N[C@@H](CCC(N)=O)C(N)=O)C(C)C)NC(=O)C(C)NC(=O)[C@H](CCCCN)NC1=O (stereo partly drawn) [FY-A-100-2] (H-LHDCEMK[ξA]KKVRGLQ-NH2; lactam 5-9),less potent
4,CSCC[C@@H]1NC(=O)[C@@H](NC(=O)[C@H](CS)NC(=O)[C@H](CC(=O)O)NC(=O)[C@H](Cc2cnc[nH]2)NC(=O)[C@@H](N)CC(C)C)CCC(=O)NCCCC[C@@H](C(=O)N[C@@H](CCCCN)C(=O)N[C@H](C(=O)N[C@@H](CCCNC(=N)N)C(=O)NCC(=O)N[C@@H](CC(C)C)C(=O)N[C@@H](CCC(N)=O)C(N)=O)C(C)C)NC(=O)[C@H](CCCCN)NC(=O)[C@H](CCCCN)NC1=O [FY-A-100-1] (H-LHDCEMKKKKVRGLQ-NH2; lactam 5-9),potent
5,CSCC[C@@H]1NC(=O)[C@@H](NC(=O)[C@H](CS)NC(=O)[C@H](CC(=O)O)NC(=O)[C@H](Cc2cnc[nH]2)NC(=O)[C@@H](N)CC(C)C)CC(=O)NCCCC[C@@H](C(=O)NC(CCCCN)C(=O)N[C@H](C(=O)N[C@@H](CCCNC(=N)N)C(=O)NCC(=O)N[C@@H](CC(C)C)C(=O)N[C@@H](CCC(N)=O)C(N)=O)C(C)C)NC(=O)C(CCCCN)NC(=O)[C@H](CCCCN)NC1=O (stereo partly drawn) [FY-A-90-1A] (H-LHDCDMK[ξK]K[ξK]VRGLQ-NH2; lactam 5-9),not active
6,CSCC[C@@H]1NC(=O)[C@@H](NC(=O)[C@H](CS)NC(=O)[C@H](CC(=O)O)NC(=O)[C@H](Cc2cnc[nH]2)NC(=O)[C@@H](N)CC(C)C)CC(=O)NCCCC[C@@H](C(=O)NC(CCCCN)C(=O)N[C@H](C(=O)N[C@@H](CCCNC(=N)N)C(=O)NCC(=O)N[C@@H](CC(C)C)C(=O)N[C@@H](CCC(N)=O)C(N)=O)C(C)C)NC(=O)C(C)NC(=O)[C@H](CCCCN)NC1=O (stereo partly drawn) [FY-A-90-2A] (H-LHDCDMK[ξA]K[ξK]VRGLQ-NH2; lactam 5-9),little activity
